Assays:
[1] = tested on: preneoplastic lesions in rat liver; assay: Resistant hepatocyte model, 25 days, histochemical GGT staining of liver sections (Example 2); format: in vivo
Procedure: (§1) For the experimental phase in its first stage, male rats of the Fisher 344 strain were used, having 180 to 200 grams body weight, which were bred and kept in an Animal Breeding and Experimentation Unit of the Advanced Research and Studies Center, in a controlled environment with 12-hour cycles of light/darkness at a temperature of 23° C., in hygiene conditions and with free access to food and water. The preneoplastic lesion outgrowth in the liver was induced to the rats by using the resistant hepatocyte model (Semple-Roberts E, Hayes M A, Armstrong D, Becker R A, Racz W J, and Farber E. (1987) Alternative methods of selecting rat hepatocellular nodules resistant to 2-acetylaminofluorence. Int, J. Cancer. 40:643-6451) modified by our research group (Carrasc-Legleu C E, Marquez-Rosado L, Fattel-Fazenda S, Arce-PopocaE, Pérez-Carreón JI, VIIIa-Treviño S. (2004) Chemoprotective effect of caffeic acid phenethyl ester on promotion in a medium-term rat hepatocarcinogenesis assay. Int J. Cancer. 108:488-92).
On days 7, 8, and 9 after the beginning, a dose of 20 mg/kg of weight of 2-acetylaminofluorene (hereinafter called as 2AAF) was administered as carcinogen promoter, and on day 10 after the beginning, rats underwent a partial hepatectomy (HP) of 70% of hepatic mass (the administration of these products along with the hepatectomy is taken into consideration as the entire treatment for this experiment). Lastly, the rats were sacrificed at day 25.
In order to show the beneficial effect of adenosine aspartate in preneoplastic lesions, 6 different experimental groups were designed, as shown in FIG. 2.
The first group (TC), having 8 rats, was administered with the entire treatment; this group was used as positive control of the preneoplastic lesion outgrowth. The second group (IFC-1), having 8 animals, was administered with a pharmacologically effective dose of adenosine aspartate, which for this case, was 50 mg/kg of body weight dissolved in a physiological saline solution, pH 7.4 with 0.5% carboxymethyl-cellulose, replacing DEN carcinogen primer. The third group (IFC-P), having 8 animals, was administered with a pharmacologically effective dose of adenosine aspartate, which for this case, was 50 mg/kg of body weight dissolved in a physiological saline solution, pH 7.4 with 0.5% carboxymethyl-cellulose, replacing 2-AAF carcinogen promoter. In the fourth group (IFC-IP), with 7 animals, both the DEN carcinogen primer and the 2AAF carcinogen promoter were substituted by adenosine aspartate in pharmacologically effective doses, which in this case, was 50 mg/kg of body weight dissolved in a physiological saline solution, pH 7.4 with 0.5% carboxymethyl-cellulose. The fifth group (C-2AAF), having 6 animals, was administered with 2AAF only, being used as control of the administration of adenosine aspartate at the beginning of the second group (IFC-I. Finally, the sixth group(C-DEN), having 7 animals, which received DEN product only, was used as control of the administration of adenosine aspartate in the promotion of group 3 (IFC-P).
When ending the cycle, all groups underwent a partial hepatectomy. […] 17(8):517-526.) Briefly, sections were set in absolute ethanol for 10 min at −20° C.; subsequently, they were treated with a solution that contains 125 μg/ml of γ-glutamil-4-methoxi-2-naphthylamide (GMNA), 0.5 mg/ml of glycyl-glycine and 0.5 mg/ml of Fast Blue in 100 mM of Tris base and they were incubated for 30 minutes at room temperature; finally, they were washed with saline solution, the precipitated were set with 100 mM cupric sulfate solution. All reagents acquired from Sigma Chemical Co. in St Louis, Mo., USA. The enzyme activity was expressed in areas stained with dark red color. […]

[2] = tested on: preneoplastic lesions in rat liver; assay: Resistant hepatocyte model, adenosine aspartate given after cancer induction, sacrifice at month 12 (Example 1); format: in vivo
Procedure: as §1
As can be observed in this figure, this second experiment (IFC) consisted first in administering by intraperitoneal route, one single dose of 200 mg/kg of weight of DEN as carcinogen primer. Additionally, on days 7, 8, and 9 after the beginning, a dose of 20 mg/kg of weight of 2AAF was administered as carcinogen promoter, and on day 10 after the beginning, rats underwent an HP. […]

alpha-fetoprotein = settings: cirrhotic patients with slightly high levels; cited from earlier work
cirrhosis of the liver = settings: cited from earlier work
[3] = group IFC-I: adenosine aspartate 50 mg/kg as primer replacing DEN, day 25
[4] = group IFC-IP: adenosine aspartate 50 mg/kg as primer and promoter replacing DEN and 2AAF, day 25
[5] = group IFC-P: adenosine aspartate 50 mg/kg as promoter replacing 2AAF, day 25

adenosine aspartate
effect over the preneoplastic lesion outgrowth compared with respective control groups ([1]; as primer (IFC-I) or as promoter (IFC-P), vs C-2AAF and C-DEN): no effect
average of positive GGT foci/cm^2 regarding the control group with the entire treatment (TC = 100%) [1, 3]: 1.3%
positive GGT area regarding the control group with the entire treatment (TC = 100%) [1, 3]: 0.4%
positive GGT arborescences in liver ([1]; group IFC-I: as primer): some livers presented positive GGT arborescences
number of positive GGT foci/cm^2 regarding the control group with the entire treatment (TC = 100%) [1, 4]: 0.2%
positive GGT area regarding the control group with the entire treatment (TC = 100%) [1, 4]: 0.08%
development of preneoplastic lesions ([1]; group IFC-IP: as primer and as promoter): no preneoplastic lesions were developed
average of positive GGT foci/cm^2 regarding the control group with the entire treatment (TC = 100%) [1, 5]: 7.1%
positive GGT area regarding the control group with the entire treatment (TC = 100%) [1, 5]: 4.6%
positive GGT arborescences and preneoplastic lesions in liver ([1]; group IFC-P: as promoter): positive GGT arborescences were not observed but small preneoplastic lesions were observed
alterations (number and area) compared with control groups C-2AAF and C-DEN ([1]; groups IFC-I and IFC-P): lower in number as well as in area
effect on already installed preneoplastic lesions ([2]; 60 mg/kg every 3 days from month 8 until month 12): reversal effect
alterations of cancer or preneoplastic lesions ([2]; administered after a product used to induce cancer, 60 mg/kg every 3 days from month 8): no suggestive alterations of cancer or preneoplastic lesions were present
serum levels of alpha-fetoprotein (alpha-fetoprotein): reduces serum levels of alpha-fetoprotein
accumulation of collagen (cirrhosis of the liver): reducing the accumulation of collagen
